{"source": "patent US11975106B2", "about": "“Uses of halogenated xanthenes in oncology and virology” (Provectus Pharmatech, Inc., priority 2020, dated 2024)", "key": {"young male Wistar rats": {"system": "young male Wistar rats", "conditions": "cited from earlier work"}, "[1]": {"conditions": "in vivo; cited from earlier work"}, "STING": {"system": "STING", "experiment": "STING dimerization by Western blot in THP-1 AML cells", "assay_type": "cell-based", "description": "Cells were treated with RB and the induction of STING was evaluated by Western blot analysis using cyclic guanosine monophosphate-adenosine monophosphate (cGAMP) as a positive control.\n(§1) These studies were carried out using RB at 100 μM, or about 0.01% RB. Cytokine assays were carried out prior to the addition of RB to the cell culture medium (0), and at 8, 24 and 48 hours thereafter.\n(§2) Proteins that associate with STING in the presence of RB were purified by immunoprecipitation and analyzed by mass spectrometry (LC-MS/MS). The culture supernatants from RB-treated cells were probed for a panel of 42 immune cytokines using the Bio-Plex® multiplex bead-based assay system (Bio-Rad Laboratories, Inc.)."}, "[2]": {"experiment": "Clinical studies of PV-10 delivered intratumorally", "assay_type": "in vivo, human", "description": "In clinical studies of PV-10 (10% disodium RB in saline for injection), RB has been tolerated at a bolus dose of 1500 mg upon intravasation when delivered intratumorally; this equates to an exposure of approximately 300 mg/L in the bloodstream (300 μM RB)."}, "[3]": {"system": "SARS-CoV-2 isolate USA-WA1/2020", "experiment": "microbe, parasite or virus in culture", "assay_type": "cell-based"}, "THP-1 AML cells": {"system": "THP-1 AML cells", "experiment": "Cytokine/chemokine Bio-Plex assay of THP-1 AML culture supernatants", "assay_type": "cell-based", "conditions": "RB 100 μM", "description": "as §1, §2"}, "[4]": {"conditions": "cited from earlier work"}, "[5]": {"experiment": "Plasma protein binding, ultracentrifugation method, rat plasma", "assay_type": "in vitro ADME", "text": "(§3) In normal rats, 75-80% of the RB was recovered from the albumin fraction and the remaining 20-25% in other protein fractions [Tsao et al. 1988, supra; and Meurman, Acta medica Scan, Supp 167, Chapters I, III, V, VII, X and XII (1960)]."}, "[6]": {"conditions": "cited from earlier work", "remark": "listed apart in the source"}, "[7]": {"conditions": "humans, intravenous; cited from earlier work"}, "SARS-CoV-2 [8]": {"system": "SARS-CoV-2"}, "[9]": {"experiment": "Classic IV diagnostic use of RB, blood concentration", "assay_type": "in vivo, human", "conditions": "100 mg single IV bolus, blood volume approximately 5 L (also approximately 20 μM)", "description": "Based on a molecular weight of 1018 g/mole for disodium RB, the classic IV diagnostic use of RB, conducted by giving 100 mg RB as a single IV bolus to adults with a standard blood volume of approximately 5 L, achieved a concentration of approximately 20 mg/L in the blood, or approximately 20 μM RB. Exposure at such a level would have minimal direct cytotoxic effect on solid tumor or hematologic malignancies, as illustrated by the results of Swift et al. 2019 or Swift et al. 2018, above."}, "[10]": {"experiment": "Plasma protein binding, ultracentrifugation method, human plasma", "assay_type": "in vitro ADME", "text": "as §3"}, "leukemia cell lines": {"system": "leukemia cell lines", "conditions": "cited from earlier work"}, "Vero cells": {"system": "Vero cells", "conditions": "48 hours"}, "[11]": {"system": "SARS-CoV-2 viral envelope protein (E gene) vRNA", "experiment": "qPCR of viral RNA (E gene) after RB treatment", "assay_type": "cell-based"}, "SARS-CoV-2 [12]": {"system": "SARS-CoV-2", "assay_type": "cell-based", "conditions": "Calu-3 cells, 48-hour RB contact; read-out: EC50 (viral titer)"}, "[13]": {"conditions": "package insert; cited from earlier work"}, "progressive COVID-19": {"system": "progressive COVID-19", "conditions": "cited from earlier work"}, "[14]": {"conditions": "rats, similar concentrations for comparators"}, "[15]": {"conditions": "oral 300 mg/kg/day, young male Wistar rats"}}, "note": "Like-named read-outs stand apart in the source and are kept apart here.", "data": [{"compound": "O=S(=O)([O-])c1ccc2c(N=Nc3ccc(S(=O)(=O)[O-])c4ccccc34)c(O)c(S(=O)(=O)[O-])cc2c1.[Na+].[Na+].[Na+]", "note": "[Amaranth, reference compound]", "values": [{"measurement": "H^3-UTP incorporation into RNA or RNA content in liver nuclei (RNA synthesis in vivo)", "setting": "young male Wistar rats; rat, in vivo", "value": "stimulate RNA synthesis"}]}, {"compound": "N#C[C@@]1(c2ccc3c(N)ncnn23)O[C@H](CO)[C@@H](O)[C@H]1O", "note": "[GS-441524]", "values": [{"measurement": "half-life", "setting": "[1]", "value": "about 25 hours"}]}, {"compound": "Cc1cc(C)c(N=Nc2c(O)c(S(=O)(=O)[O-])cc3cc(S(=O)(=O)[O-])ccc23)cc1C.[Na+].[Na+]", "note": "[Ponceau 3R, reference compound]", "values": [{"measurement": "H^3-UTP incorporation into RNA or RNA content in liver nuclei (RNA synthesis in vivo)", "setting": "young male Wistar rats; [14]", "value": "stimulate RNA synthesis"}]}, {"compound": "O=C1OC2(c3cc(I)c(O)c(I)c3Oc3c2cc(I)c(O)c3I)c2c(Cl)c(Cl)c(Cl)c(Cl)c21", "note": "[RB, 4,5,6,7-tetrachloro-2′,4′,5′,7′-tetraiodofluorescein]", "values": [{"measurement": "STING dimerization (Western blot)", "setting": "STING; RB at 100 μM", "value": "new about 70-KD STING dimer band"}, {"measurement": "induction of PDL-1", "setting": "STING; compared to cGAMP controls", "value": "no induction"}, {"measurement": "exposure in the bloodstream", "setting": "[2]; at 1500 mg bolus (printed also as 300 μM RB)", "value": "approximately 300 mg/L"}, {"measurement": "tolerated bolus dose", "setting": "[2]; upon intravasation when delivered intratumorally as PV-10", "value": 1500, "unit": "mg"}, {"measurement": "IC50", "setting": "[3]; RB alone, 2 hours of contact, Vero C1008, read-out: IC50 for inhibition", "value": 67, "unit": "µM"}, {"measurement": "IC50", "setting": "[3]; RB plus 0.15 μM remdesivir, 2-hour RB contact, Vero C1008, read-out: IC50 for inhibition", "value": 47.4, "unit": "µM"}, {"measurement": "increase in IL-6", "setting": "THP-1 AML cells; 24 hours following exposure", "value": "approximately 10 fold"}, {"measurement": "increase in IL-8", "setting": "THP-1 AML cells; 24 hours following exposure", "value": "approximately 10 fold"}, {"measurement": "increase in IP-10", "setting": "THP-1 AML cells; 24 hours following exposure", "value": "approximately 10 fold"}, {"measurement": "MCP-1 levels", "setting": "THP-1 AML cells", "value": "significant increase"}, {"measurement": "induction of IFN gamma", "setting": "THP-1 AML cells; peak at 24 hours", "value": "> 2", "unit": "fold"}, {"measurement": "induction of MCP-3", "setting": "THP-1 AML cells; peak at 24 hours", "value": "> 2", "unit": "fold"}, {"measurement": "solubility", "setting": "[4]; in 2-methoxyethanol (printed also as 6%)", "value": 60, "unit": "mg/mL"}, {"measurement": "solubility", "setting": "[4]; in ethanol (printed also as 3%)", "value": 30, "unit": "mg/mL"}, {"measurement": "solubility", "setting": "[4]; in water (printed also as 10%)", "value": "≥ 100", "unit": "mg/mL"}, {"measurement": "plasma protein binding", "setting": "[5]", "value": 99.2, "unit": "%"}, {"measurement": "plasma protein binding", "setting": "[5]; 1 μM", "value": 99.0, "unit": "%"}, {"measurement": "bound in serum", "setting": "[6]; equilibrium dialysis, serum from rats lacking serum albumin", "value": "more than 99.8%"}, {"measurement": "recovered from the albumin fraction", "setting": "[6]; normal rats", "value": "75-80%"}, {"measurement": "recovered in other protein fractions", "setting": "[6]; normal rats", "value": "20-25%"}, {"measurement": "circulatory half-life", "setting": "[7]", "value": "about 30 minutes"}, {"measurement": "SI (CC50/EC50)", "setting": "SARS-CoV-2 [8]; Vero cells, 48 hours", "value": 3211}, {"measurement": "inhibition in viral titers", "setting": "SARS-CoV-2 [8]; Vero cells, approximately 1 to 100 μM RB, 48 hours of contact", "value": "complete inhibition"}, {"measurement": "EC50", "setting": "SARS-CoV-2 [8]; read-out: EC50 (viral titer)", "value": 0.054, "unit": "µM"}, {"measurement": "influence on growth rate", "setting": "young male Wistar rats; [15]", "value": "no influence"}, {"measurement": "relative liver weight", "setting": "young male Wistar rats; [15]", "value": "significant decrease"}, {"measurement": "H^3-UTP incorporation into RNA or RNA content in liver nuclei (RNA synthesis in vivo)", "setting": "young male Wistar rats; [14]", "value": "No effect"}, {"measurement": "concentration in the blood", "setting": "[9]", "value": "approximately 20 mg/L"}, {"measurement": "plasma protein binding", "setting": "[10]; 1 μM", "value": 99.8, "unit": "%"}, {"measurement": "plasma protein binding", "setting": "[10]; 10 μM", "value": 99.9, "unit": "%"}, {"measurement": "IC50", "setting": "leukemia cell lines; primary pediatric leukemia cell lines", "value": 92.8, "unit": "µM"}, {"measurement": "IC50", "setting": "leukemia cell lines; refractory (relapsed) pediatric leukemia cell lines", "value": 122, "unit": "µM"}, {"measurement": "CC50", "setting": "Vero cells", "value": 175, "unit": "µM"}, {"measurement": "cycle threshold (ct) of sub-genomic viral RNA", "setting": "[11]", "value": "higher ct values"}, {"measurement": "viral E gene copy numbers / viral production", "setting": "[11]; RB added after the virus has been incubated with the cells", "value": "no effect"}, {"measurement": "viral E gene copy numbers", "setting": "[11]; virus and RB added at the same time", "value": "reduction compared to control"}, {"measurement": "viral E gene copy numbers", "setting": "[11]; virus pre-treated with RB 0.6 μM, 1 hour, p<0.05", "value": "lower copy numbers"}, {"measurement": "EC50", "setting": "SARS-CoV-2 [12]", "value": 0.015, "unit": "µM"}]}, {"compound": "CCC(CC)COC(=O)[C@H](C)N[P@](=O)(OC[C@H]1O[C@@](C#N)(c2ccc3c(N)ncnn23)[C@H](O)[C@@H]1O)Oc1ccccc1", "note": "[remdesivir, reference compound]", "values": [{"measurement": "EC50", "setting": "[3]; Severe acute respiratory syndrome coronavirus 2, Vero C1008, read-out: EC50 (percent plaque forming unit)", "value": 0.86, "unit": "µM"}, {"measurement": "IC50", "setting": "[3]; Severe acute respiratory syndrome coronavirus 2, Vero C1008, read-out: IC50 (percent inhibition)", "value": 0.86, "unit": "µM"}, {"measurement": "half-life", "setting": "[1]", "value": "about 0.89 hours"}]}, {"compound": "Yervoy®: immune checkpoint inhibitor monoclonal antibody", "values": [{"measurement": "terminal t1/2", "setting": "[13]", "value": 15.4, "unit": "days"}]}, {"compound": "tocilizumab: immunosuppressive humanized monoclonal antibody against the interleukin-6 receptor", "values": [{"measurement": "death rate ratio", "setting": "progressive COVID-19; 28-day mortality, 95% CI 0.77-0.96, p=0.007", "value": 0.86}, {"measurement": "proportional reduction in 28-day mortality", "setting": "progressive COVID-19; about 4000 hospitalized patients, progressive COVID-19", "value": 13, "unit": "%"}]}]}
